Test [1] relates to New Zealand White rabbits, MSU crystal gout model. Nature of the test: In vivo rabbit gout model (intra-articular MSU): joint swelling and CD31 staining. Conditions: daily prophylactic treatment. As for the experimental part:
MSU crystals were prepared by dissolving uric acid (Aladdin, cat #U105582) in boiling water (1 g in 200 mL with 6 mL of 1 N NaOH). PH value was adjusted to 7.2 by HCl. The solution was stirred and cooled to room temperature and stored at 4° C. overnight. The precipitate was filtered with filter paper and dried under low heat to obtain MSU crystals. New Zealand White rabbits received an intra-articular injection of 1 mL of MSU crystals (50 mg/mL) into both knees (MSU group) or PBS (as vehicle, control group). n=10 for MSU groups; n=6 for PBS group.
For immunohistochemistry, bone sections were stained with anti-CD31 (Abcam #ab9498) diluted at 1:500. The nuclei were stained with hematoxylin. Slides were scanned using LEICA Aperio GT450 at 400× magnification. The number of positive blood vessels were counted blindly.
(a) To determine NEK7 degradation, spleens and peripheral blood mononuclear cells (PBMC) were analyzed by JESS for NEK7 and normalized to α-Tubulin from five representative animals. (b) The degree of joint swelling was determined by caliper measurements at the indicated time points. (c) Rabbit bone tissue sections were stained and quantified for anti-CD31 immunohistochemistry. Results expressed as mean±SEM. Statistical analysis was performed using two-way ANOVA. The difference was considered significant when p<0.05.

For test [2], the system named is IL-1β. Nature of the test: IL-1β in human monocyte-derived macrophages, LPS/MSU stimulation. Type of test: cell-based. Conditions: 24 h pre-treatment, LPS + MSU 6 h, eight donors. As for the experimental part:
(§1) Human monocytes were enriched and isolated from a buffy coat of whole blood with a RosetteSep™ Human Monocyte Enrichment Cocktail (Cat.No. 15068, StemCell) and Ficoll-Plaque PLUS (Cat.No. H8889, Sigma). Monocytes were differentiated into macrophages by treatment with 100 ng/mL M-CSF for 6 days at 37° C., 5% CO2. Differentiated macrophages were seeded overnight (50,000 cells/well) in 100 μL of medium in a 96-well white-bottom plate at 37° C., 5% CO2. Cells were treated with a concentration range of MGD or the NLRP3 inhibitor selnoflast (Cat.No. HY-132831, MedChemExpress) for 24 h prior to stimulation with monosodium urate crystals (MSU). Macrophages were stimulated with […] lipopolysaccharide (LPS) and 0.2 mg/mL MSU for 6 h. Medium of stimulated macrophages were collected and assayed for caspase-1 activity directly (Promega G9951) as well as IL-1β (Promega W6010), according to manufacturer's instructions.
(§2) (a, b) Human monocyte-derived macrophages pre-treated with a dose-response of Compound 14 or selnoflast (NLRP3 inhibitor) for 24 h and stimulated with a combination of lipopolysaccharide (LPS) and monosodium urate crystals (MSU) for 6 h prior to supernatant collection. Monocytes were isolated from eight human donors. Caspase-1 (a) and IL-1β (b) in the supernatant are measured and data are expressed as percentage relative to mean values of DMSO conditions for each donor (technical triplicates). Means of eight donors are plotted and analyzed using a four-parameter logistic regression model.

The subject of test [3] is Caspase-1 activity. Nature of the test: Caspase-1 activity in human monocyte-derived macrophages, LPS/MSU stimulation. The test is classed as cell-based. The settings on record: 24 h pre-treatment, LPS + MSU 6 h, eight donors. As for the experimental part:
as §1, §2

Test [4] concerns IL-1β release. Nature of the test: IL-1β release in human monocyte-derived macrophages, LPS/nigericin stimulation. The test is classed as cell-based. The settings on record: Macrophage, 24 h pre-treatment, LPS 3 h then 10 μM nigericin 1 h, read-out: IL-1b IC50 (NIG). As for the experimental part:
(§3) Human monocytes were enriched and isolated from a buffy coat of healthy donor whole blood with a RosetteSep™ Human Monocyte Enrichment Cocktail (Cat.No. 15068, StemCell) and Ficoll-Plaque PLUS (Cat.No. H8889, Sigma). Monocytes were differentiated into macrophages by treatment with 100 ng/mL M-CSF for 6 days at 37° C., 5% CO2. Differentiated macrophages were seeded overnight (50,000 cells/well) in 100 µL of medium in a 96-well, white-bottom plate at 37° C., 5% CO2. Cells were treated with a concentration range of MGD for 24 hours prior to stimulation with nigericin. Macrophages were primed with […] LPS for 3 h followed by 1 h stimulation with 10 μM nigericin. Media of stimulated macrophages were collected and assayed for caspase 1 activity directly (Promega G9951), according to manufacturer's instructions. For IL-1β release assay, media of stimulated macrophages were collected and stored at −20° C., then thawed at 4° C. before assaying for IL-1β activity (Promega W6011), according to manufacturer's instructions.

The target of test [5] is CRBN-DDB1 (Homo sapiens (Human), UniProt Q96SW2). In words: Compound binding to CRBN by HTRF assay. A digest of the protocol: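 Ki calculated via Cheng-Prusoff from geometric-mean EC50 values, after normalizing the HTRF ratio to lenalidomide (active) and DMSO (neutral) controls. Compounds (11 points, 1:3 steps) incubated 30 min at ambient temperature with CRBN-DDB1 2.5 nM, anti-His Tb cryptate and Cy5-thalidomide tracer 100 nM.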
Sequence of CRBN-DDB1 (Q96SW2 whole entry): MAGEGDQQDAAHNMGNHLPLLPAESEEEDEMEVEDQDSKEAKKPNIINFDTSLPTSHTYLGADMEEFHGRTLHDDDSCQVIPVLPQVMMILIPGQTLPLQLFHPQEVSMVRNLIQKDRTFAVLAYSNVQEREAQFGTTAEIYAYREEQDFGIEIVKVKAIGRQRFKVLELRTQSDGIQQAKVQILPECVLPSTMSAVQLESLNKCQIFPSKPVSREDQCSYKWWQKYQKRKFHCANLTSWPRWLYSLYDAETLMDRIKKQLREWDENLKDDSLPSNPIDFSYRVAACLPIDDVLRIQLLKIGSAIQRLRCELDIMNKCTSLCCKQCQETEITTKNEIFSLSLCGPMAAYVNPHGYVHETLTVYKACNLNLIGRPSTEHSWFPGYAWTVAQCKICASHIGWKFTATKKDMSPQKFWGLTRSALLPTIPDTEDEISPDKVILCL
Sequence of CRBN-DDB1 (Q16531 whole entry partner): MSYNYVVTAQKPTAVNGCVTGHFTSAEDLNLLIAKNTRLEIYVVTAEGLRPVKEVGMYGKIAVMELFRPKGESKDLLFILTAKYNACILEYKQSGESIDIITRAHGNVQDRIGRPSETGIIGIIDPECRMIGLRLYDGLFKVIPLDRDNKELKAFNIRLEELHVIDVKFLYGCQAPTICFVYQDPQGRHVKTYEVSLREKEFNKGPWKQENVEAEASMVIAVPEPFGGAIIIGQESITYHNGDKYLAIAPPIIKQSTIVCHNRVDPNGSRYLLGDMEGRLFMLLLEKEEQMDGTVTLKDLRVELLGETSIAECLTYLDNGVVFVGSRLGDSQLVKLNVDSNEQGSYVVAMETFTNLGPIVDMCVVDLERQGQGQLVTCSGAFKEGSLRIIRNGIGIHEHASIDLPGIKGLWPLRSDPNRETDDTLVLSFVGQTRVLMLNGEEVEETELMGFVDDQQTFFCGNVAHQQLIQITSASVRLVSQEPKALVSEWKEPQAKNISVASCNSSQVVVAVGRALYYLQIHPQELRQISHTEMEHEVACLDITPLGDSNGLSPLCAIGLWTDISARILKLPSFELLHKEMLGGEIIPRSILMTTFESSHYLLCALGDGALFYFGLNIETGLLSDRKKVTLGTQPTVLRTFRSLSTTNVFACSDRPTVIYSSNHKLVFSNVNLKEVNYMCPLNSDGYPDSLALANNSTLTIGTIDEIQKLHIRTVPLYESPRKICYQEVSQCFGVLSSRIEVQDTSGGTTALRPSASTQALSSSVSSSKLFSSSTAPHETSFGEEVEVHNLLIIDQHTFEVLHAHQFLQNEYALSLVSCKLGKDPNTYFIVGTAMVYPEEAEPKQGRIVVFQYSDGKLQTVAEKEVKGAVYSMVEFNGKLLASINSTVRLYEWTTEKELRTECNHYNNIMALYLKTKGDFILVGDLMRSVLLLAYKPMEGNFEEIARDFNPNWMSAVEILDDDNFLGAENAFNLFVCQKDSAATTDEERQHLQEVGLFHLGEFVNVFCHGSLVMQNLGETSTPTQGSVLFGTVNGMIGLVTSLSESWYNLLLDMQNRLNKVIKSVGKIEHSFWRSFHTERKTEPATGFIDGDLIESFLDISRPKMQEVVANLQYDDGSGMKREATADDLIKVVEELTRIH
Background: TR-FRET usually uses a lanthanide donor and a delayed reading to cut background.

Test [6] concerns the target NEK7 (Homo sapiens (Human), UniProt Q8TDX7+Q96SW2). In words: NEK7 NanoBiT degradation assay in Cal51 NEK7 NanoBiT cell line. The test is classed as cell-based. Conditions: Cal51 NEK7 NanoBiT cells, 24 hours; for Dmax: CAL-51. A digest of the protocol: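 EC50 comes from a 4-parameter fit of control-normalized luminescence. The luminescence reports HiBiT-NEK7 (endogenous knock-in) complemented by stably expressed LgBiT in Cal51 cells after 24 h compound exposure at 37 °C. Final concentrations ran 1 μM to 0.05 nM, with Endurazine substrate present in the medium throughout.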

The test system of test [7] is Caspase-1 activity. In words: Caspase-1 activity in human monocyte-derived macrophages, LPS/nigericin stimulation. Type of test: cell-based. The settings on record: Macrophage, 24 h pre-treatment, LPS 3 h then 10 μM nigericin 1 h, read-out: Caspase-1 IC50 (NIG). As for the experimental part: as §3
Setting [8] is: NEK7 degradation, read-out: NanoBiT Dmax.
The mark [9] stands for this setting: NEK7 degradation, read-out: NanoBiT DC50.

The structures appear in SMILES notation. Where two headings read alike, the source gives them in different places.

Sequence of NEK7 (Q8TDX7 whole entry): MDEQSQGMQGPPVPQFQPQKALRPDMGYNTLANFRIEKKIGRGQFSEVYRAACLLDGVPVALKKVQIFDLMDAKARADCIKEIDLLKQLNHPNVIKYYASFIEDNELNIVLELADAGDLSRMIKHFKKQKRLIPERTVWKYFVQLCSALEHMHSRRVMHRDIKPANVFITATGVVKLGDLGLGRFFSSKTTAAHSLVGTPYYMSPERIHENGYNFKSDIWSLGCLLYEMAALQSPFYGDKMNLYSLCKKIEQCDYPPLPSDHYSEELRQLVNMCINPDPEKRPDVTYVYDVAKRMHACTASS
Sequence of NEK7 (Q96SW2 whole entry): as the sequence (Q96SW2 whole entry) above
Sequence of NEK7 (Q16531 2-1140 partner): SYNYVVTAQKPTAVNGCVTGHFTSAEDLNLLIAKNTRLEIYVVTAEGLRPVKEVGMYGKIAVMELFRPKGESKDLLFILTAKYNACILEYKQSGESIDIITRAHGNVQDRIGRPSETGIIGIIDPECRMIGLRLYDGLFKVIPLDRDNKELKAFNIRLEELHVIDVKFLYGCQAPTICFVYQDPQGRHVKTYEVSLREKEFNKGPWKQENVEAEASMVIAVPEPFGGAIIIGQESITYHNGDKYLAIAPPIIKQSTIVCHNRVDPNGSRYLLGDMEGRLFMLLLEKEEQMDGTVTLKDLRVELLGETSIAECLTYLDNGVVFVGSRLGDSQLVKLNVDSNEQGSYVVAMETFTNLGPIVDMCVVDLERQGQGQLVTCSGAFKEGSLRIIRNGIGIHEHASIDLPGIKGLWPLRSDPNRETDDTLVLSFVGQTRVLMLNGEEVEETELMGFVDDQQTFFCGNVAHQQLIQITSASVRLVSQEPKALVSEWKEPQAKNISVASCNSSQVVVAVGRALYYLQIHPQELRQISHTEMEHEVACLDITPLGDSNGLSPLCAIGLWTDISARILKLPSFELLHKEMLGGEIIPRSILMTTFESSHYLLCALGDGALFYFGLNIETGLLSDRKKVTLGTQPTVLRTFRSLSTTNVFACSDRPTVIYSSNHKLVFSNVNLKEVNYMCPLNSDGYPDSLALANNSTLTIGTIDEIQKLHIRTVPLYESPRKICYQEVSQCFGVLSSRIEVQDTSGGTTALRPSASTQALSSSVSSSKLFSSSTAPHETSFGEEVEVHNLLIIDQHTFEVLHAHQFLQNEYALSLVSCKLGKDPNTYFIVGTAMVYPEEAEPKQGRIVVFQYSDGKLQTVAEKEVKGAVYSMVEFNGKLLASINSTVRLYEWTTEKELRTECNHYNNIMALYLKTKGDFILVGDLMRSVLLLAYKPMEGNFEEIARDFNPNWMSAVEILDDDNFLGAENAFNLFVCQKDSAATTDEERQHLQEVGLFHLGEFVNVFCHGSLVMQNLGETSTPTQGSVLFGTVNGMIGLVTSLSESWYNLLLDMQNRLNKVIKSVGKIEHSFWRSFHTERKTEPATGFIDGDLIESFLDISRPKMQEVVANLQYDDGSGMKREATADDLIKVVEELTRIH

With `CCN1CCC(S(=O)(=O)NC(=O)Nc2c3c(cc4c2CCC4)CCC3)CC1` [selnoflast, reference compound], in test [1], the “CD31 staining in bone tissue” value is listed as “improvement” and the “joint swelling induced by intra-articular MSU injection” value was “improvement”. Besides, the “IL-1β Imax” value in test [2] is on record as 79%. The IC50 in test [2] (Homo sapiens, Macrophage) is 746 nM. Also, the “Caspase-1 activity Imax” value in test [3] came out at 89%. Besides, the IC50 in test [3] (Homo sapiens, Macrophage) was determined as 843 nM.

On to `CC(C)(C(=O)NCc1cc(Cl)c(C2CCC(=O)NC2=O)c(Cl)c1)c1ccnc(C(F)(F)F)c1` (stereo not drawn) [Compound 97], for which the IC50 in test [4] was found to be 5.23 nM; in test [7] it was 5.84 nM. Further, the EC50 in test [5] was 170 nM; in test [5] (HTRF class, Cereblon binding), 100 to 1000 nM. For the same molecule, the values for the Dmax in test [6] (read-out: NEK7 NanoBiT Dmax) and in test [6] (setting [8]) were 76% and more than 75%, respectively. Further, the results for the DC50 in test [6] (read-out: NEK7 NanoBiT DC50) and in test [6] (setting [9]) were 50 nM and not above 100 nM, respectively.

`CC(C)(C(=O)NCc1cc(Cl)c(C2CCC(=O)NC2=O)c(Cl)c1)c1ccccc1` (stereo not drawn) [Compound 37, N-(3,5-dichloro-4-(2,6-dioxopiperidin-3-yl)benzyl)-2-methyl-2-phenylpropanamide]: the IC50 in test [4] turned out to be 0.31 nM; in test [7] it was 0.14 nM. Besides, the EC50 is 30 nM in test [5] and not above 100 nM in test [5] (HTRF class, Cereblon binding). Further, the Dmax in test [6] (read-out: NEK7 NanoBiT Dmax) is 97%; in test [6] (setting [8]), more than 75%. The DC50 in test [6] (read-out: NEK7 NanoBiT DC50) is 1 nM; in test [6] (setting [9]), not above 100 nM.

For the molecule `CC(C)(C(=O)NCc1cc(Cl)c(C2CCC(=O)NC2=O)c(Cl)c1)c1ccc(S(N)(=O)=O)cc1` (stereo not drawn) [Compound 76], the figures for the IC50 in test [4] and in test [7] were 0.83 nM and 0.49 nM, respectively. For the same molecule, the EC50 in test [5] was 70 nM; in test [5] (HTRF class, Cereblon binding), not above 100 nM. In addition, the values for the Dmax in test [6] (read-out: NEK7 NanoBiT Dmax) and in test [6] (setting [8]) were 97% and more than 75%, respectively. In addition, the figures for the DC50 in test [6] (read-out: NEK7 NanoBiT DC50) and in test [6] (setting [9]) were 2 nM and not above 100 nM, respectively.

`C[C@]12C=CC(=O)C=C1CC[C@@H]1[C@@H]2[C@@H](O)C[C@@]2(C)[C@H]1CC[C@]2(O)C(=O)CO` [prednisolone]: in test [1], the “CD31 staining in bone tissue” value is given as “improvement” and the “joint swelling induced by intra-articular MSU injection” value is given as “improvement”.

On to `CC(C)(C(=O)NCc1cc(Cl)c(C2CCC(=O)NC2=O)c(Cl)c1)c1ccnc(F)c1` (stereo not drawn) [Compound 93], for which the IC50 in test [4] is 0.9 nM; in test [7], 0.45 nM. Besides, the EC50 in test [5] is 70 nM; in test [5] (HTRF class, Cereblon binding), not above 100 nM. Further, the Dmax in test [6] (read-out: NEK7 NanoBiT Dmax) is 92%; in test [6] (setting [8]), more than 75%. Besides, the figures for the DC50 in test [6] (read-out: NEK7 NanoBiT DC50) and in test [6] (setting [9]) were 4 nM and not above 100 nM, respectively.

As for `CC(C)(C(=O)NCc1cc(Cl)c(C2CCC(=O)NC2=O)c(Cl)c1)c1ccc(C2CC2)nn1` (stereo not drawn) [Compound 192], the IC50 in test [4] was 0.94 nM; in test [7], 0.75 nM. Further, the EC50 in test [5] was 90 nM; in test [5] (HTRF class, Cereblon binding) it was not above 100 nM. The Dmax in test [6] (read-out: NEK7 NanoBiT Dmax) was 92%; in test [6] (setting [8]) it was more than 75%. Also, the DC50 in test [6] (read-out: NEK7 NanoBiT DC50) was 5 nM; in test [6] (setting [9]), not above 100 nM.

As to `Cc1cc(C(C)(C)C(=O)NCc2cc(Cl)c(C3CCC(=O)NC3=O)c(Cl)c2)ccn1` (stereo not drawn) [Compound 95], the concentration for half-maximal inhibition (IC50) was found to be 1.21 nM in test [4] and 0.82 nM in test [7]. Also, the EC50 in test [5] was 100 nM; in test [5] (HTRF class, Cereblon binding), not above 100 nM. Also, the values for the Dmax in test [6] (read-out: NEK7 NanoBiT Dmax) and in test [6] (setting [8]) were 92% and more than 75%, respectively. The DC50 in test [6] (read-out: NEK7 NanoBiT DC50) is 6 nM; in test [6] (setting [9]) it was not above 100 nM.

Turning to `Cc1nnc(C(C)(C)C(=O)NCc2cc(Cl)c(C3CCC(=O)NC3=O)c(Cl)c2)o1` (stereo not drawn) [Compound 110], the IC50 in test [4] was 9.87 nM; in test [7], 11.2 nM. The EC50 was 320 nM in test [5] and 100 to 1000 nM in test [5] (HTRF class, Cereblon binding). For the same molecule, the results for the Dmax in test [6] (read-out: NEK7 NanoBiT Dmax) and in test [6] (setting [8]) were 76% and more than 75%, respectively. Besides, the DC50 in test [6] (read-out: NEK7 NanoBiT DC50) is 50 nM; in test [6] (setting [9]), not above 100 nM.

Regarding `CC(C)(C(=O)NCc1cc(Cl)c(C2CCC(=O)NC2=O)c(Cl)c1)c1ccncc1` (stereo not drawn) [Compound 108], the results for the IC50 in test [4] and in test [7] were 0.41 nM and 0.54 nM, respectively. For the same molecule, the EC50 in test [5] was 80 nM; in test [5] (HTRF class, Cereblon binding), not above 100 nM. The Dmax in test [6] (read-out: NEK7 NanoBiT Dmax) was 92%; in test [6] (setting [8]), more than 75%. Besides, the results for the DC50 in test [6] (read-out: NEK7 NanoBiT DC50) and in test [6] (setting [9]) were 3 nM and not above 100 nM, respectively.

The term IC50 denotes the midpoint of a concentration-inhibition curve. Broadly, the EC50 is the concentration giving half of the maximal effect. High values mean a less potent agent, low ones a more potent agent. What is called Dmax is the greatest extent of degradation seen. The DC50 is the midpoint of the concentration-degradation curve.

For the origin of these results see patent US20250243180A1, “TARGETED PROTEIN DEGRADATION” (Monte Rosa Therapeutics AG, priority 2023, published 2025).
